Measurements reported in US7745450B2, “Pyrazolo[4,3-d]pyrimidines, processes for their preparation and methods for therapy” (Institute of Experimental Botany, priority 2002, dated 2010).
Read-outs that look alike come from different tables or passages of the source.

Experiments:
[1] = system: myeloid leukemia KG1 cell line; assay: Cell proliferation of KG1, flow cytometric cell count; format: cell-based, human; details: for Recovery of cell number after wash-out: washed free after 6 hours of exposure, 7 days drug-free medium
Procedure: (§1) Cell lines: Human leukemic cell lines were obtained from the American Type Culture Collection (ATCC, Rockville, Md., USA). They were cultured in Iscove's Modified Dulbecco's Medium (IMDM) supplemented with 10% heat inactivated fetal calf serum (FCS), 200 U/ml penicillin, 200 μg/ml streptomycin and 1 μg/ml amphotericin B. Cells were cultured in a 5% CO2-95% air fully humidified incubator. For effects on clonogenic output, 1000 cells/well were plated in duplicate in methylcellulose (0.9%), supplemented with 20% FCS for 14 days.
(§2) Cells were plated at 10000 per well in 200 μl IMDM medium and incubated with 0-50 μM of the novel compounds (Tab 8), by addition of drug directly to the culture medium and incubated at 37° C. for 96 hours (Tab 8). Absolute cell number was determined by addition of a known concentration Fluoresbrite microspheres (FITC) (Polysciences, Inc.). The absolute number of cells/well was calculated as: {(total number of beads added/well)/(number of beads measured)×(number of measured cells in the gate of interest)}. All analyses were performed with a FACScan (BD), using CELLQuest software (Becton Dickinson).
(§3) Response of the myeloid leukemia KG1 and T-lymphocyte leukemia Molt3 cell lines to the cytostatic effect of the novel compounds was determined using the above-mentioned standardized bead suspension that was used to determine the absolute cell number by flow cytometric (FCM) measurement. Cells were grown in the presence of increasing concentration of the novel compounds.
To determine reversibility of the effects of the novel compounds, cells were plated at 10000 per well and exposed to 0-50 μM of the compounds for the time indicated, followed by washing in phosphate-buffered saline (PBS) (Life Technologies) and reseeded into drug-free medium for 7 additional days. An identical set of cells was plated and exposed to the drugs for 7 additional days. After 7 days (168 hours), the relative cell number was assayed by flow cytometry.

cdk1/cyclin B (CDC2) = cdk1/cyclin B (CDC2) (Homo sapiens, UniProt P06493); assay: CDK inhibition assay, cdk1/cyclin B (CDC2) kinase, histone phosphorylation; format: biochemical; details: cell free system (Table 8)
Procedure, shortened: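 Radiometric endpoint kinase assay under linear conditions: histone (1 mg/ml) phosphorylated with 15 μM ATP and [γ-32P]ATP in 50 mM HEPES pH 7.4, 10 mM MgCl2, 1 mM DTT. IC50 obtained graphically from dose-response curves of % maximal activity, read by imaging analyzer.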

[2] = system: T-lymphocyte leukemia Molt3 cell line; assay: Cell proliferation of Molt3, flow cytometric cell count; format: cell-based, human; details: 96 hours
Procedure: as §1, §2, §3

KG1 cells = assay: Induction of apoptosis in tumor cells (microscopy, flow cytometry); format: cell-based, human; details: for Speed of apoptosis induction: scored after 6, 12, 24, 48 and 72 hours
Procedure: Microscopy: Nuclear morphology of the cells was analyzed with the fluorochromes Hoechst 33342 (λEx max 346 nm; λEm max 460 nm) (Sigma) prepared in phosphate-buffered saline (PBS at 0.1 mg/ml, added to the culture medium at a final concentration of 2 μg/ml and ethidium homodimer (EB) (λEx max 540 nm; λEm max 625 nm) (Sigma) prepared in PBS at 100 μg/ml and added to the culture medium at a final concentration of 2 μg/ml (Lizard, 1995). Hundred cells were counted for each sample and percentage of apoptosis was determined.
TdT-mediated dUTP nick end labeling (TUNEL): Control and novel compound-treated cell cultures were washed with PBS and fixed in 1% buffered formaldehyde (pH 7.4) for 15 minutes on ice. After washing in PBS, cells were permeabilized in 70% cold (−20° C.) ethanol and transferred to 4° C. for at least 1 hour. After rehydratation in PBS, cells were labeled with 50 μl/well TUNEL reaction mixture (Boehringer Mannheim). Cells were incubated in this solution at 37° C. for 40 minutes, washed in PBS and resuspended in 500 μl PBS containing 5 μg/ml EB and 0.1% RNAse. After 30 minutes of incubation at 4° C., green (FITC-dUTP) and red (EB-DNA) fluorescence of individual cells was measured on a FACscan flow cytometer (Gorczyca, 1993). Negative control (fixed and permeabilized cells incubated with 50 μl label solution per well without terminal transferase, instead of TUNEL reaction mixture) and positive control (fixed and permeabilized cells incubated with DNase I (100 μg/ml) that induces DNA strand breaks) were included in each experimental set-up.
Viable, apoptotic, necrotic (=primary necrosis, not following apoptosis) and secondarily necrotic cells (=late apoptosis, evolving to necrosis) were scored differentially after 6, 12, 24, 48 and 72 hours of exposure to novel compounds. For the three products a different apoptosis-inducing pattern could be observed. Apoptosis induction occurs fast after incubation with 172 and 201 but slower after incubation with 98.
After 6 and 12 hours of incubation the apoptotic population seems mainly to evolve from S phase. […]

KG1 = assay: Clonogenic output of KG1 in methylcellulose; format: cell-based, human; details: 25 μM
Procedure: as §1
Clonogenic output of KG1 was tested in methylcellulose with 25 μM of some of the novel compounds. Colony output vs. control cultures without novel compound, was 16% for 26, 19% for […] and 0% for 201.

[3] = continuous exposure, 7 days (168 hours), read-out: IC50, KG1 cells exposed continuously

Sequence of cdk1/cyclin B (CDC2) (P06493 whole entry, species assumed): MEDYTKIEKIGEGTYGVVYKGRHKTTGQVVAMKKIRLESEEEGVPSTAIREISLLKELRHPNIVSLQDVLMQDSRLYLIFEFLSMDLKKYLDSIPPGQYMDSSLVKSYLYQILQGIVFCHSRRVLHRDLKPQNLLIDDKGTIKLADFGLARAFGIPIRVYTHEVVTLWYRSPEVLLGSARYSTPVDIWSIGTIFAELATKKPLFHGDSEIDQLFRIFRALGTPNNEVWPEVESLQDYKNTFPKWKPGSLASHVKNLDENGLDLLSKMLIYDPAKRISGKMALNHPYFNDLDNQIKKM
Sequence of cdk1/cyclin B (CDC2) (P14635 whole entry partner, species assumed): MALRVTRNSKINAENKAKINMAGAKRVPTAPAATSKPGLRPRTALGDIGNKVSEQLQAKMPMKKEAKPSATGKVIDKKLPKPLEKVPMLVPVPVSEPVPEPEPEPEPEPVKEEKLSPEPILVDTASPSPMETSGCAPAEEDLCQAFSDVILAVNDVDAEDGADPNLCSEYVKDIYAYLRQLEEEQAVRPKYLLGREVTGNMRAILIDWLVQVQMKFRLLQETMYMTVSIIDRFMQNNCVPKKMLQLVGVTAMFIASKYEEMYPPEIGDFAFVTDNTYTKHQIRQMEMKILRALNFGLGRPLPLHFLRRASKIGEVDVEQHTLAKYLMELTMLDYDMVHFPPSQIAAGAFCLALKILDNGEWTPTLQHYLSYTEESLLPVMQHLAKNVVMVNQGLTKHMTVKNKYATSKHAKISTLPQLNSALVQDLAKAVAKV

| Molecule | IC50 ([1]; 96 hours, read-out: KG1 IC50) | IC50 [1, 3] | Recovery of cell number after wash-out [1] | IC50 (cdk1/cyclin B (CDC2)) | IC50 [2] | Incubation time after which apoptosis is detected (KG1 cells; flow cytometry, cell line not given) | Speed of apoptosis induction (KG1 cells) | Colony output vs. control cultures (KG1) | IC50 ([1]; Homo sapiens, KG-1, 96 hours, read-out: KG1 IC50) | IC50 ([2]; Homo sapiens, MOLT-3) |
| --- | --- | --- | --- | --- | --- | --- | --- | --- | --- | --- |
| 5-(3-aminoethylamino)-7-(3,4-dihydroxybenzyl)amino-3-isopropylpyrazolo[4,3-d]pyrimidine [Compound 201] | 12 ± 1.3 µM | 16 ± 1.3 µM | substantial recovery of cell number | 0.5 µM | 12 ± 1.8 µM | 6 h | fast | 0% | – | – |
| 5-(3-aminopropylamino)-7-benzylamino-3-isopropylpyrazolo[4,3-d]pyrimidine [Compound 17] | 6 ± 1 µM | 16 ± 1.7 µM | substantial recovery of cell number | 11 µM | 9.3 ± 0.3 µM | – | – | – | – | – |
| 5-(3-hydroxypropylamino)-7-[(R,S)-(1-phenyl-2-hydroxyethyl)amino-3-isopropylpyrazolo[4,3-d]pyrimidine [Compound 172] | 3 ± 1 µM | 7 ± 2 µM | substantial recovery of cell number | > 50 µM | 8 ± 1.5 µM | – | fast | – | – | – |
| 5-(methylthio)-7-[N-(3,4-dihydroxybenzyl-N-methyl]amino-3 isopropylpyrazolo[4,3-d]pyrimidine [Compound 26] | 13 ± 0.2 µM | – | – | > 100 µM | 17 ± 2.9 µM | – | – | 16% | – | – |
| CCCCCCNc1nc(NC(CO)c2ccccc2)c2[nH]nc(C(C)C)c2n1 (stereo not drawn) [Compound 98, 5-(hexylamino)-7-(1-phenyl-2-hydroxyethylamino)-3-isopropylpyrazolo[4,3-d]pyrimidine] | – | – | – | 30 µM | – | – | – | 19% | 5 ± 0.3 µM | 8 ± 0.4 µM |
